Converted amounts (≈) assume the structure as drawn. Like-named read-outs stand apart in the source and are kept apart here.
Tests used:
MRSA ATCC 43300 = details: n = 2
Description: (§1) A positive control of a row of just the bacteria and a negative control of only the medium were included for every plate tested.
(§2) The compounds along with standard antibiotics were serially diluted 2-fold across the 96-well plates. […] A sample of each culture was then diluted 40-fold in fresh MH broth (in presence and absence of Tween) and incubated at 37°C for 2 to 3 h.
For experiments in the presence of surfactant, 2% beractant (25 mg/ml) was added to the mid-log-phase cultures and mixed gently and added to all the 96-well plates. For experiments in the presence of serum, a mixture of 50% of human serum along with 50% MHB was prepared and used throughout the experiment.

E. faecalis ATCC 29212 = assay: microbe, parasite or virus in culture; details: Corning NBS; MHB +T80; n = 2
Description: as §1, §2

[1] = tested on: S. aureus GISA NRS 2; ATCC 700698; assay: microbe, parasite or virus in culture; details: Corning NBS; MHB -T80; n = 2
Description: as §1, §2

S. pyogenes ATCC 12344 = details: ATCC 12344
Description: as §1, §2

MRSA = details: literature value; cited from earlier work
Description: TABLE 1 Literature MIC values for tested antibiotics | column: MIC (µg/ml) (reference[s]) / MRSA

S. aureus ATCC 29123 = details: cited from earlier work
Description: The majority of antibiotic stock solutions for testing are prepared in water, phosphate buffer, or pH-adjusted aqueous solution (106 out of 139 reported in CLSI M100 [see Table 6A, “Solvents and diluents for preparation of stock solutions of antimicrobial agents”]) ([3]). […] Furthermore, the CLSI reference MIC quality control range tabulated for dalbavancin an ...

[2] = estimated; cited from earlier work
Description: Other assay additives can affect MIC values. […] This in turn translates into reduced ...

With `CN[C@H]1C(=O)N[C@@H]2Cc3ccc(cc3)Oc3cc4cc(c3O[C@@H]3O[C@H](C(=O)O)[C@@H](O)[C@H](O)[C@H]3NC(=O)CCCCCCCCC(C)C)Oc3ccc(cc3Cl)[C@@H](O)[C@@H]3NC(=O)[C@H](NC(=O)[C@@H]4NC(=O)[C@@H](NC2=O)c2cc(cc(O)c2Cl)Oc2cc1ccc2O)c1ccc(O)c(c1)-c1c(O[C@H]2O[C@H](CO)[C@@H](O)[C@H](O)[C@@H]2O)cc(O)cc1[C@@H](C(=O)NCCCN(C)C)NC3=O` [Dalbavancin, dalbavancin] the MIC (MRSA ATCC 43300; Corning flat TC plate, MHB −T80, no additive) was 4 mg/L (≈ 2.2 µM), the MIC (MRSA ATCC 43300; Trek PS, MH + 2% LHB, 2% LS) was 0.125 mg/L and the MIC (MRSA ATCC 43300; Trek PS, MH + 2% LHB, no additive) was 0.125 mg/L. The MIC (E. faecalis ATCC 29212) was 0.125 mg/L (≈ 0.0688 µM), the MIC [1] was 0.125 mg/L (≈ 0.0688 µM) and the MIC (S. pyogenes ATCC 12344) was at most 0.003 mg/L. For the same molecule, the “MIC (literature)” value (MRSA) was 0.06 ([68], [69]) µg/ml, the MIC (S. aureus ATCC 29123; CLSI-consistent value, 0.002% polysorbate 80) was 0.06 mg/L (≈ 0.033 µM) and the MIC (S. aureus ATCC 29123; dilutions in contact with plastic for as little as 30 min before inoculation with surfactant-containing media) was 2 to 8 mg/L. For the same molecule, the half-life [2] was 220 to 288 h.

Reference: PMC6325200, “Effects of Microplate Type and Broth Additives on Microdilution MIC Susceptibility Assays” (Antimicrobial Agents and Chemotherapy, 2018)
